Structures are written as SMILES.

These results are taken from US9920035B2, “Heterocyclic compounds, medicaments containing said compounds, use thereof and processes for the preparation thereof” (Boehringer Ingelheim International GmbH, priority 2011, dated 2018).

This test deals with T1, epithelial sodium channel (ENaC) (Mus musculus, UniProt Q61180+Q9WU38+Q9WU39).
T1 construct: Mouse kidney M-1 cells were cultivated in DMEM containing 5% FCS and 5 μM dexamethasone; endogenous in cells; host or cells: mouse kidney M-1 cells
T1 sequence (Q61180 1-699): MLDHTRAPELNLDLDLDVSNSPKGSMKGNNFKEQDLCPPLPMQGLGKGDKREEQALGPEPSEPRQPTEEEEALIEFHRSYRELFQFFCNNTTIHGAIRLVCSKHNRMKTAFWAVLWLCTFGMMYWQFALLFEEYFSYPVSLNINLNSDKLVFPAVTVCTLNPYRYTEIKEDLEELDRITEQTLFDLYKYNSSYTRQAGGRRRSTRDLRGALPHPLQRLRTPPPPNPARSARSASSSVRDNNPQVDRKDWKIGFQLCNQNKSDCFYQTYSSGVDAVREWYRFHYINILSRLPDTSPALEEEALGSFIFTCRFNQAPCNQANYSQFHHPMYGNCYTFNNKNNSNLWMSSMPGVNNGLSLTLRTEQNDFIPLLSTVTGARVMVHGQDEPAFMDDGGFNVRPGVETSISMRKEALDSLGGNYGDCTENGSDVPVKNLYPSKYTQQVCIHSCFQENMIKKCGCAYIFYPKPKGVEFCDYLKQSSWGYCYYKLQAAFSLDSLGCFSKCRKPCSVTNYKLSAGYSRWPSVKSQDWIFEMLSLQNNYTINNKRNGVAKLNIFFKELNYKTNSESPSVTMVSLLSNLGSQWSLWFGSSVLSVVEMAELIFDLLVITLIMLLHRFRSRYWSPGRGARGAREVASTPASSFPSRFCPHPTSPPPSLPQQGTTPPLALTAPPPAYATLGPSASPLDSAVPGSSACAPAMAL
T1 sequence (Q9WU38 1-638): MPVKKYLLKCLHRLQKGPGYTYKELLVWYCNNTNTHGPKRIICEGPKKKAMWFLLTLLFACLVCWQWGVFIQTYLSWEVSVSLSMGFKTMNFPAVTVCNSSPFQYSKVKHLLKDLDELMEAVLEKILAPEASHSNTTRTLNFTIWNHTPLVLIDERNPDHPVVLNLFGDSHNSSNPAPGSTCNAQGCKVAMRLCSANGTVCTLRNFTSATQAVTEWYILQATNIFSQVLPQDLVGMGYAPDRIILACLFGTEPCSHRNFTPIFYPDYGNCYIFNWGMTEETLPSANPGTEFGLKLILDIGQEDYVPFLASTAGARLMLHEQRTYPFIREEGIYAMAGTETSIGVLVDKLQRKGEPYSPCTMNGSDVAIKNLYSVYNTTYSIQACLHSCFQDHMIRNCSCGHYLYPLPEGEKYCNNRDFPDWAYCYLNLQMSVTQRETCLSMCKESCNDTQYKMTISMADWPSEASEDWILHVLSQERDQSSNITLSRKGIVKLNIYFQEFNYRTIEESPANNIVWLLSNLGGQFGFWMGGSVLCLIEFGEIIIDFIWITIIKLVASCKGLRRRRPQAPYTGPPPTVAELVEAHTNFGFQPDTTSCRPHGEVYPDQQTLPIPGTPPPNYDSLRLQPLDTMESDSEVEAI
T1 sequence (Q9WU39 1-655): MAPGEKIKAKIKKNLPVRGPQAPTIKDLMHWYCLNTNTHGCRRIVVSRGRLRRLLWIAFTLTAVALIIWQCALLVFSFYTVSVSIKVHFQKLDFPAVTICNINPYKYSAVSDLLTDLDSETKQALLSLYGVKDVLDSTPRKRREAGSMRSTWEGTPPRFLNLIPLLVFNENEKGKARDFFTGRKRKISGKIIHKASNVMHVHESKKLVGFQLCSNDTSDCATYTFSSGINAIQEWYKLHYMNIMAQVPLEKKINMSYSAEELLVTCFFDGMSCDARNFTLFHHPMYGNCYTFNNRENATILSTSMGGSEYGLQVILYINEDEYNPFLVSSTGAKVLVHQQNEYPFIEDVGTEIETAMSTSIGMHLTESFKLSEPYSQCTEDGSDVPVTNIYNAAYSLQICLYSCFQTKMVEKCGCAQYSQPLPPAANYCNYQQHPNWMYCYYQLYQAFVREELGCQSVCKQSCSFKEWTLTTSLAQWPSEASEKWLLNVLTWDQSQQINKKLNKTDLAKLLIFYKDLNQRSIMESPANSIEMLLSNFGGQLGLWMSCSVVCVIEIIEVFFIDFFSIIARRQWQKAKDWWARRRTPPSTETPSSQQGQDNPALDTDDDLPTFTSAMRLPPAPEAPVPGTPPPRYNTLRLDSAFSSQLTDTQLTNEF
In words: Ussing chamber: inhibition of amiloride sensitive short circuit current (I_sc) in M-1 cells. The following applies: Mouse kidney M-1 cells on transwell filters, Ussing chamber at 37° C., compound added to the apical solution. In kind it is cell-based. Here is the method: Mouse kidney M-1 cells were cultivated in DMEM containing 5% FCS and 5 μM dexamethasone for 10 to 12 days on polyester transwell filters. Filters were inserted into a teflon-coated well-plate which fit into the in-house ussing chamber system. Prior to measurement the medium of M-1 cells was replaced with Caco-2 transport buffer (Invitrogen, Germany). During measurements, the Ussing chamber temperature was kept at 37° C. Short circuit currents (I_sc) were measured in the voltage-clamp mode using an in-house built amplifier (Boehringer Ingelheim, Biberach) with the software package Lab View for data acquisition and analysis. The transepithelial electrical resistance (TEER) was determined by the application of voltage steps of ±5 mV every 5 sec. Compounds were administered at a final concentration of 3 μM or at increasing concentrations (1-3-10 μM) to the apical solution. At the end of each experiment the amiloride sensitive I_SC was measured by adding 3 μM amiloride to the apical compartment. Results are expressed as inhibition in percent of the amiloride effect or as IC50. Results are listed in tables 1 to 5 and further examples listed above.
As usually defined, the IC50 is the concentration at which inhibition is half-maximal. A higher IC50 goes with weaker potency in that assay. `N/C(=N\C(=O)c1nc(Cl)c(N)nc1N)NCC1(CCc2ccccc2)CCN(C(=O)NCCCCCCNC(=O)N2CCC(CCc3ccccc3)(CN/C(N)=N/C(=O)c3nc(Cl)c(N)nc3N)CC2)CC1` [Example 6.1] gave an IC50 of 97 nM. In other words, the double-digit nanomolar range.
The figure for `NCCCCC(=O)N1CCC(CCc2ccccc2)(CNC(N)=NC(=O)c2nc(Cl)c(N)nc2N)CC1` [Example 2.3] is 23 nM.
For `COc1ccccc1C1(CNC(N)=NC(=O)c2nc(Cl)c(N)nc2N)CCN(C(=O)OC(C)(C)C)CC1` [Example 1.45], it took 66 nM to reach half-maximal inhibition (IC50). Against the preceding compound, the IC50 is about 2.9-fold higher.
Under `COc1ccccc1C1(CNC(N)=NC(=O)c2nc(Cl)c(N)nc2N)CCNCC1` [Example 2.10] stands 200 nM.
The figure for `CN(C)CCCN1CCC(CNC(N)=NC(=O)c2nc(Cl)c(N)nc2N)(Cc2ccccc2)CC1` [Example 1.31] is 287 nM.
